Assay results taken from the supplement of paper PMC11451515.

Columns and labels:
NOMO1 = assay: AUC of viability dose-response curve (% viability x log10 dose units); higher = less sensitive; settings: 48 h
Summary of the method: (§1)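 Leukemia cells adapted to each medium were seeded in 1536-well plates (500 or 1000 cells/well) and given library compounds in DMSO for 48 h at 37°C. The 11 threefold doses spanned 47 μM to 0.79 nM, and CellTiter-Glo One luminescence was normalised per plate to DMSO and cell-free wells before four-parameter log-logistic fitting on log10 dose. Area under the curve was integrated with the trapezoidal rule, scaling curves above full viability and removing curves that failed quality control.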

P12-Ichikawa [1] = assay: as above; settings: 48 h
Summary of the method: as §1

SEM cells [2] = assay: as above; settings: 48 h
Summary of the method: as §1

P12-Ichikawa [3] = assay: cell viability relative to DMSO control; higher = less cytotoxic; settings: RPMI 5 mM glucose + 10% dialyzed FBS, 48 h
Summary of the method: (§2)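 Viability, reported as a per-plate percentage of DMSO wells with cell-free wells as background, came from CellTiter-Glo One luminescence. Reading took place after 48 h at 37°C. Before that, NOMO1 or SEM (500 cells/well) or P12-Ichikawa (1000 cells/well) leukemia cells, adapted for at least four passages in each medium, were seeded in 1536-well plates (5 μl) and pin-dosed with library compounds in DMSO, 47 μM to 0.79 nM over 11 threefold points.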

SEM cells [4] = assay: as above; settings: 48 h
Summary of the method: as §2

[5] = RPMI 5 mM glucose + 10% dialyzed FBS
[6] = HPLM + 10% dialyzed FBS, 0.000781 µM
[7] = HPLM + 10% dialyzed FBS, 0.00234 µM
[8] = HPLM + 10% dialyzed FBS, 0.00702 µM
[9] = HPLM + 10% dialyzed FBS, 0.0211 µM
[10] = HPLM + 10% dialyzed FBS, 0.0632 µM
[11] = HPLM + 10% dialyzed FBS, 0.19 µM
[12] = HPLM + 10% dialyzed FBS, 0.569 µM
[13] = HPLM + 10% dialyzed FBS, 1.71 µM
[14] = HPLM + 10% dialyzed FBS, 5.12 µM
[15] = HPLM + 10% dialyzed FBS, 15.4 µM
[16] = HPLM + 10% dialyzed FBS, 46.1 µM

With `COc1cc(C(=O)N2CCC(N3CCN(C)CC3)CC2)ccc1Nc1ncc2c(n1)N(C)c1ccccc1C(=O)N2C` the “AUC of viability dose-response curve” value (NOMO1; HPLM + 10% dialyzed FBS) was 419, the “AUC of viability dose-response curve” value (NOMO1; RPMI 5 mM glucose + 10% FBS) was 435 and the “AUC of viability dose-response curve” value (NOMO1; [5]) was 412. The “AUC of viability dose-response curve” value (P12-Ichikawa [1]; HPLM + 10% dialyzed FBS) was 428, the “AUC of viability dose-response curve” value (P12-Ichikawa [1]; RPMI 5 mM glucose + 10% FBS) was 435 and the “AUC of viability dose-response curve” value (P12-Ichikawa [1]; [5]) was 433. For the same molecule, the “AUC of viability dose-response curve” value (SEM cells [2]; HPLM + 10% dialyzed FBS) was 376, the “AUC of viability dose-response curve” value (SEM cells [2]; RPMI 5 mM glucose + 10% FBS) was 374 and the “AUC of viability dose-response curve” value (SEM cells [2]; [5]) was 363.

`C[C@@H]1CN[C@H]2[C@@H](C)[C@@]\3(CC[C@H]\4[C@@H]5C/C=C6/C[C@@H](O)CC[C@]6(C)[C@H]5CC4=C3C)O[C@@H]2C1` was tested, and the cell viability (P12-Ichikawa [3]; 0.000781 µM) was 119%, the cell viability (P12-Ichikawa [3]; 0.00234 µM) was 125% and the cell viability (P12-Ichikawa [3]; 0.00702 µM) was 123%. The cell viability (P12-Ichikawa [3]; 0.0211 µM) was 121%, the cell viability (P12-Ichikawa [3]; 0.0632 µM) was 124% and the cell viability (P12-Ichikawa [3]; 0.19 µM) was 115%. For the same molecule, the cell viability (P12-Ichikawa [3]; 0.569 µM) was 114%, the cell viability (P12-Ichikawa [3]; 1.71 µM) was 114% and the cell viability (P12-Ichikawa [3]; 5.12 µM) was 109%. For the same molecule, the cell viability (P12-Ichikawa [3]; 15.4 µM) was 101%, the cell viability (P12-Ichikawa [3]; 46.1 µM) was 93.1% and the cell viability (SEM cells [4]; [6]) was 78.3%. For the same molecule, the cell viability (SEM cells [4]; [7]) was 122%, the cell viability (SEM cells [4]; [8]) was 119% and the cell viability (SEM cells [4]; [9]) was 119%. The cell viability (SEM cells [4]; [10]) was 129%, the cell viability (SEM cells [4]; [11]) was 118% and the cell viability (SEM cells [4]; [12]) was 127%. The cell viability (SEM cells [4]; [13]) was 114%, the cell viability (SEM cells [4]; [14]) was 114% and the cell viability (SEM cells [4]; [15]) was 98.4%. The cell viability (SEM cells [4]; [16]) was 84.6%, the cell viability (SEM cells [4]; RPMI 5 mM glucose + 10% FBS, 0.000781 µM) was 77.7% and the cell viability (SEM cells [4]; RPMI 5 mM glucose + 10% FBS, 0.00234 µM) was 119%. For the same molecule, the cell viability (SEM cells [4]; RPMI 5 mM glucose + 10% FBS, 0.00702 µM) was 132%, the cell viability (SEM cells [4]; RPMI 5 mM glucose + 10% FBS, 0.0211 µM) was 141% and the cell viability (SEM cells [4]; RPMI 5 mM glucose + 10% FBS, 0.0632 µM) was 118%. It also gave a cell viability (SEM cells [4]; RPMI 5 mM glucose + 10% FBS, 0.19 µM) of 115%, a cell viability (SEM cells [4]; RPMI 5 mM glucose + 10% FBS, 0.569 µM) of 117% and a cell viability (SEM cells [4]; RPMI 5 mM glucose + 10% FBS, 1.71 µM) of 120%. It also gave a cell viability (SEM cells [4]; RPMI 5 mM glucose + 10% FBS, 5.12 µM) of 105%, a cell viability (SEM cells [4]; RPMI 5 mM glucose + 10% FBS, 15.4 µM) of 109% and a cell viability (SEM cells [4]; RPMI 5 mM glucose + 10% FBS, 46.1 µM) of 93.5%. For the same molecule, the “AUC of viability dose-response curve” value (NOMO1; HPLM + 10% dialyzed FBS) was 449, the “AUC of viability dose-response curve” value (NOMO1; RPMI 5 mM glucose + 10% FBS) was 460 and the “AUC of viability dose-response curve” value (NOMO1; [5]) was 451. For the same molecule, the “AUC of viability dose-response curve” value (P12-Ichikawa [1]; HPLM + 10% dialyzed FBS) was 454, the “AUC of viability dose-response curve” value (P12-Ichikawa [1]; RPMI 5 mM glucose + 10% FBS) was 441 and the “AUC of viability dose-response curve” value (P12-Ichikawa [1]; [5]) was 449. The “AUC of viability dose-response curve” value (SEM cells [2]; HPLM + 10% dialyzed FBS) was 460, the “AUC of viability dose-response curve” value (SEM cells [2]; RPMI 5 mM glucose + 10% FBS) was 462 and the “AUC of viability dose-response curve” value (SEM cells [2]; [5]) was 469.

`CCc1cccc(CC)c1NC(=O)N1Cc2[nH]nc(NC(=O)c3ccc(N4CCN(C)CC4)cc3)c2C1` gave a cell viability (SEM cells [4]; [6]) of 100%, a cell viability (SEM cells [4]; [7]) of 121% and a cell viability (SEM cells [4]; [8]) of 130%. For the same molecule, the cell viability (SEM cells [4]; [9]) was 128%, the cell viability (SEM cells [4]; [10]) was 133% and the cell viability (SEM cells [4]; [11]) was 138%. It also gave a cell viability (SEM cells [4]; [12]) of 113%, a cell viability (SEM cells [4]; [13]) of 89.2% and a cell viability (SEM cells [4]; [14]) of 57.5%. For the same molecule, the cell viability (SEM cells [4]; [15]) was 22.1%, the cell viability (SEM cells [4]; [16]) was 7.86% and the “AUC of viability dose-response curve” value (NOMO1; HPLM + 10% dialyzed FBS) was 415. The “AUC of viability dose-response curve” value (NOMO1; RPMI 5 mM glucose + 10% FBS) was 403, the “AUC of viability dose-response curve” value (NOMO1; [5]) was 394 and the “AUC of viability dose-response curve” value (P12-Ichikawa [1]; HPLM + 10% dialyzed FBS) was 356. The “AUC of viability dose-response curve” value (P12-Ichikawa [1]; RPMI 5 mM glucose + 10% FBS) was 361, the “AUC of viability dose-response curve” value (P12-Ichikawa [1]; [5]) was 373 and the “AUC of viability dose-response curve” value (SEM cells [2]; HPLM + 10% dialyzed FBS) was 372. For the same molecule, the “AUC of viability dose-response curve” value (SEM cells [2]; RPMI 5 mM glucose + 10% FBS) was 341 and the “AUC of viability dose-response curve” value (SEM cells [2]; [5]) was 344.

With `CC(C)Nc1cc(-c2c[nH]c(C(=O)N[C@H](CO)c3cccc(Cl)c3)c2)c(Cl)cn1` the cell viability (SEM cells [4]; [6]) was 105%, the cell viability (SEM cells [4]; [7]) was 118% and the cell viability (SEM cells [4]; [8]) was 125%. It also gave a cell viability (SEM cells [4]; [9]) of 123%, a cell viability (SEM cells [4]; [10]) of 141% and a cell viability (SEM cells [4]; [11]) of 133%. It also gave a cell viability (SEM cells [4]; [12]) of 144%, a cell viability (SEM cells [4]; [13]) of 120% and a cell viability (SEM cells [4]; [14]) of 98.7%. For the same molecule, the cell viability (SEM cells [4]; [15]) was 94.1%, the cell viability (SEM cells [4]; [16]) was 11.3% and the “AUC of viability dose-response curve” value (NOMO1; HPLM + 10% dialyzed FBS) was 393. For the same molecule, the “AUC of viability dose-response curve” value (NOMO1; RPMI 5 mM glucose + 10% FBS) was 383, the “AUC of viability dose-response curve” value (NOMO1; [5]) was 371 and the “AUC of viability dose-response curve” value (P12-Ichikawa [1]; HPLM + 10% dialyzed FBS) was 423. For the same molecule, the “AUC of viability dose-response curve” value (P12-Ichikawa [1]; RPMI 5 mM glucose + 10% FBS) was 396, the “AUC of viability dose-response curve” value (P12-Ichikawa [1]; [5]) was 394 and the “AUC of viability dose-response curve” value (SEM cells [2]; HPLM + 10% dialyzed FBS) was 436. The “AUC of viability dose-response curve” value (SEM cells [2]; RPMI 5 mM glucose + 10% FBS) was 422 and the “AUC of viability dose-response curve” value (SEM cells [2]; [5]) was 400.
